The series in a line: aqueous solubility. The series is classed as physicochemical. The conditions noted are these: aqueous environment, water; aqueous environments; about 22° C. unless otherwise specified. The text has this: The CETP inhibitor may be any compound capable of inhibiting the cholesteryl ester transfer protein. Solid amorphous dispersions are particularly useful for CETP inhibitors that have sufficiently low aqueous solubility, low bioavailability or slow rate of absorption such that it is desirable to increase their concentration in an aqueous environment of use. The CETP inhibitor is typically “sparingly water-soluble,” which means that the CETP inhibitor has a minimum aqueous solubility of less than about 1 to 2 mg/mL at any physiologically relevant pH (e.g., pH 1-8) and at about 22° C. Many CETP inhibitors are “substantially water-insoluble,” which means that the CETP inhibitor has a minimum aqueous solubility of less than about 0.01 mg/mL (or 10 μg/ml) at any physiologically relevant pH (e.g., pH 1-8) and at about 22° C. (Unless otherwise specified, reference to aqueous solubility herein and in the claims is determined at about 22° C.) Compositions of the present invention find greater utility as the solubility of the CETP inhibitors decreases, and thus are preferred for CETP inhibitors with solubilities less than about 10 μg/mL, more preferred for CETP inhibitors with solubilities less than about 2 μg/mL, and even more preferred for CETP inhibitors with solubilities less than about 1 μg/mL. […]

Turning to `CCOC(=O)N1c2ccc(C(F)(F)F)cc2[C@@H](N(Cc2cc(C(F)(F)F)cc(C(F)(F)F)c2)C(=O)OC)C[C@H]1CC` [torcetrapib, [2R,4S]-4-[(3,5-bis-trifluoromethyl-benzyl)-methoxycarbonyl-amino]-2-ethyl-6-trifluoromethyl-3,4-dihydro-2H-quinoline-1-carboxylic acid ethyl ester], the solubility – broadly, the dissolved amount per volume that the medium holds – was below 0.04 µg/mL.

The values are drawn from patent US8828438B2, “Pharmaceutical compositions of cholesteryl ester transfer protein inhibitors and HMG-CoA reductase” (Bend Research, Inc., priority 2005, dated 2014).
